Structures are written as SMILES.

As a reminder, the Ki is a measure of affinity in units of concentration, obtained from inhibition or displacement.

Assay [1] deals with T1, human D4 receptor (D4.2 sub-type) (Homo sapiens, UniProt P21917, DEL265-296).
T1 construct: expressed in transfected cells; host or cells: HEK 298 (human embryonic kidney); homogenate used
T1 sequence (P21917 with tags, fused parts or gaps DEL265-296): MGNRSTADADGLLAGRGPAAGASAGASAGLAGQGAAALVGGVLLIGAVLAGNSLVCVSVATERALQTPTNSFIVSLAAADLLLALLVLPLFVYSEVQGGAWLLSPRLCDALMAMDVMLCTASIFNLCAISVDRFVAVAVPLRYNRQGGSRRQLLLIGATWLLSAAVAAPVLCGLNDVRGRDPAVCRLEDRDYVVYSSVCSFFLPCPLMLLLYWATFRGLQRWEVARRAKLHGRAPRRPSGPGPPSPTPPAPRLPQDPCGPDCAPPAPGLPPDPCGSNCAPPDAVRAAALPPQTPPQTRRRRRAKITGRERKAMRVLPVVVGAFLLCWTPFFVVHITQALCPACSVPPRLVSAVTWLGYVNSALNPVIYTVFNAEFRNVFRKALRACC
Put plainly: D4 receptor-binding affinity (displacement of 3H-spiperone). The settings on record: 3H-spiperone 0.25 nM, HEK 298 cell membranes, Cheng and Prustoff transformation. On the procedure: The potency of the test compound to reduce ^3 H-spiperone binding directly correlated to its binding affinity for the receptor.
The cells were then centrifuged in a Sorval centrifuge for 10 minutes, 5000 rpm (GS3 rotor) and the pellets quickly frozen in liquid nitrogen and stored at -80° C. until used in binding assay.
Concentration of receptor protein was determined using the Pierce BCA assay.
The tubes were vortexed and incubated at room temperature for 90 minutes. The binding reaction was stopped by filtering using a Brandell Cell Harvester. The samples were filtered under vacuum over glass fibre filters (Whatman GF/B) presoaked for 2 hours in 0.3% polyethylenimine (PEI) in 50 mM Tris buffer (pH7.4). The filters were then washed 3 times with 5 mL ice cold 50 mM Tris buffer (pH7.4). Individual filter disks were put in scintillation vials (Biovials, Bechman).
The tubes were vortexed and incubated at room temperature for 90 minutes at which time the binding reaction was stopped by filtering. The filters were washed and counted using the same procedure as in the total binding assay described above to give the non-specific binding value (NSB).
The incubation was started by the addition to 12×75 mm polypropylene tubes 500 μl (50 μg protein) membrane homogenate to a solution of 400 μl incubation buffer, 100 μl (0.25 final conc.) ^3 H-spiperone (90Ci/mmol, Amersham, diluted in borosilicate glass vial to) and […] of test compound that was prepared from 1 mM stock dissolved in DMSO and stored at -20° C. in polypropylene cryogenic storage vials until dilution in incubation buffer in borosilicate glass vials. The tubes were vortexed and incubated at room temperature for 90 minutes at which time the binding reaction was stopped by filtering. The filters were washed and counted using the same procedure as in the total binding assay described above to give the displacement binding value (BD).
IC50 was determined from an inhibition response curve, logit-log plot of %B/B0 vs concentration of test compound.
Ki was calculated by the Cheng and Prustoff transformation: […]
where [L] is the concentration of ^3 H-spiperone used in the assay and KD is the dissociation constant of ^3 H-spiperone determined independently under the same binding conditions.
For orientation: In a radioligand displacement assay an active substance lowers the binding of a labelled ligand.

In assay [2] the test system is human D2 receptor (short isoform) relative to human D4 receptor (D4.2 sub-type). Description: D4 selectivity: D2 versus D4 receptor binding (displacement of 3H-spiperone). The settings on record: D2/D4 ratio, D2 in GH4 C1 cells, D4 in HEK 298 cells. On the procedure:
The potency of the test compound to reduce ^3 H-spiperone binding directly correlated to its binding affinity for the receptor. […] When used in the assay, cells were thawed on ice for 20 minutes and then 10 mL of incubation buffer (50 mM Tris, 1 mM EDTA, 4 mM MgCI2, 5 mM KCI, 1.5 mM CaCI2, 120 mM NaCI, pH7.4) was added. […] Concentration of receptor protein was determined using the Pierce BCA assay. […] After 16 hours, fresh media was added to allow the cells to recover for 24 hours. The cells were harvested using versene and then centrifuged in a Sorval centrifuge for 10 minutes, at 5000 rpm (GS3 rotor). Pellets were quickly frozen in liquid nitrogen and stored at -80° C. until used in the binding assays. When used in the assay, cells were thawed on ice for 20 minutes. […] The receptor protein concentration was determined using the Pierce BCA assay. […] The tubes were vortexed and incubated at room temperature for 90 minutes. The binding reaction was stopped by filtering using a Brandell Cell Harvester. The samples were filtered under vacuum over glass fibre filters (Whatman GF/B) presoaked for 2 hours in 0.3% polyethylenimine (PEI) in 50 mM Tris buffer (pH7.4). The filters were then washed 3 times with 5 mL ice cold 50 mM Tris buffer (pH7.4). Individual filter disks were put in scintillation vials (Biovials, Bechman). […] The tubes were vortexed and incubated at room temperature for 90 minutes at which time the binding reaction was stopped by filtering. The filters were washed and counted using the same procedure as in the total binding assay described above to give the non-specific binding value (NSB). […] The tubes were vortexed and incubated at room temperature for 90 minutes at which time the binding reaction was stopped by filtering. The filters were washed and counted using the same procedure as in the total binding assay described above to give the displacement binding value (BD). […] IC50 was determined from an inhibition response curve, logit-log plot of %B/B0 vs concentration of test compound.

The target of assay [3] is D4 receptor. To be noted: marketed products, background section; read-out: D4 affinity, Ki value; cited from earlier work.
Assay [4] has as its system D4 receptor relative to the D2 receptor. To be noted: marketed products, background section; cited from earlier work.

In assay [1], `N#Cc1ccccc1CN1CCN(C2=Nc3ccccc3Oc3ccccc32)CC1` [11-[4-(2-cyanobenzyl)-1-piperazinyl]dibenz[b,f][1,4]oxazepine] showed an inhibitory constant (Ki) of 0.519 µM. In assay [2], the D2/D4 came to 16.1.

Take `Clc1ccc2c(c1)N=C(N1CCN(Cc3ccccc3)CC1)c1ccccc1O2` [8-Chloro-11-(4-benzyl-1-piperazinyl)-dibenz[b,f][1,4]oxazepine]: the inhibition constant Ki in assay [1] turned out to be 0.019 µM. Moreover, the D2/D4 in assay [2] is given as 31.7.

Consider `CN1CCN(C2=Nc3cc(Cl)ccc3Oc3ccccc32)CC1` [isoloxapine], for which, in assay [3], the inhibition constant (Ki) is ~0.02 µM. The “preference for binding the D4 receptor relative to the D2 receptor” value in assay [4] is listed as “about 10 fold”.

In assay [1], `N#Cc1cccc(CN2CCN(C3=Nc4ccccc4Oc4ccccc43)CC2)c1` [11-[4-(3-cyanobenzyl)-1-piperazinyl]dibenz[b,f][1,4]oxazepine] displayed a Ki of 0.134 µM. The D2/D4 in assay [2] was 21.7.

`N#Cc1ccc(CN2CCN(C3=Nc4ccccc4Oc4ccccc43)CC2)cc1` [11-[4-(4-cyanobenzyl)-1-piperazinyl]dibenz[b,f][1,4]oxazepine]: the inhibition constant Ki in assay [1] was found to be 0.108 µM. Moreover, in assay [2], the D2/D4 is listed as 90.1.

The values above are taken from patent publication US5814628A, “Benzyl-substituted compounds having dopamine receptor affinity” (Allelix Biopharmaceuticals Inc., priority 1996, dated 1998).
